# In patent US8946216B2, “Indazole derivatives useful as ERK inhibitors” (Merck Sharp & Dohme Corp., priority 2010, dated 2015):
# Columns and labels:
# ERK protein = ERK protein (Homo sapiens, UniProt P28482); assay: TdF (Temperature Dependence Fluorescence, thermal shift) assay for ERK; type: binding; details: read-out: TdF Kd; 3 μM ERK protein, 15, 50 or 100 μM compound, Sypro Orange; Kd calculated from ΔTm; uncertainty estimated ±50%
# Source text: Assays: TdF Assay for ERK
# The SAR (Structure Activity Relationship) for ERK ligands covered by this invention was interrogated using the TdF (Temperature Dependence Fluorescence) assay or best known as thermal shift assay. The TdF assay was mainly conducted in the 96-well based CHROMO-4 real time fluorescence plate reader (BioRad). The Sypro Orange (Sigma-Aldrich), environmentally sensitive fluorescence dye, was used to monitor the protein folding-unfolding transition. Protein-ligand binding was gauged by the change (or shift) in the unfolding transition temperature (ΔTm) acquired at protein alone with respect to protein in the presence of ligand of interest.
# Compound of interest was first prepared in DMSO stock (typical concentration: 10 mM). Sample of 20 μL was then added into the 96-well PCR plate, where it consisted of 3 μM. […] Final percentage of DMSO resided in the sample was 2%. The sample plate was heated from 30° C. to 90° C. with thermal ramping rate of 1 ° C./min. The fluorescence signals were acquired with excitation and emission wavelengths centered at 490 and 560 nm respectively. The instrument thermal stability was ±0.2° C. The melting temperatures (Tm) for ERK protein under aforementioned conditions occurred at 61.0±0.2° C. and 64.8±0.2° C. respectively.
# Theoretical Basis for TdF-based Ligand Binding Affinity Constant
# The derivation of TdF-based ligand binding affinity constant (Kd) followed closely those previously formulated by Brandts and Lin [2]. In brief, the binding constant of the ligand at the Tm is expressed as below: […]
# where T0 is the midpoint of unfolding for unliganded protein and Tm is the midpoint of unfolding in presence of ligand. [LTm] is free ligand at Tm. The ΔHu and ΔCpu are the enthalpy of unfolding and heat capacity change of unfolding for the protein respectively. Following algorithm derived by Winsor and coworker, the T0, ΔHu and ΔCpu can be determined separately from nonlinear regression fitting the protein alone melting curve:
# Where F(T) is the observed fluorescence intensity at any temperature T, Yn and Yu are the predicted fluorescence intensities for fully folded and unfolded protein, respectively; mn and mu are slope correction for changes in Yn and Yu with respect to changes in temperature (analogously replace T0 with Tm in the above equation for liganded protein to yield Tm).
# where ΔHL(T) is the van't Hoff enthalpy of ligand binding at temperature T and ΔCpL is the heat capacity upon ligand binding. For simplicity, the ΔCpL and ΔHL(T) were set to zero and −7 kcal/mol respectively. The uncertainty in the calculated ligand binding affinity constant was estimated to be ±50%.
# [1] = molecular target: unphosphorylated Mouse ERK2 protein (inactive ERK2) (Mus musculus, UniProt P63085); assay: Coupled ERK2 (cERK) assay, coupled MEK1/ERK2 IMAP; type: biochemical; details: 30 min preincubation with inactive ERK2, then activation by human MEK1; 30 μM ATP; fluorescence polarization; read-out: cERK2 IC50
# Source text: • 1. M. W. Pantoliana, E. C. Petrella, J. D. Kwasnoski, V. S. Lobanov, J. Myslik, E. Graf, T. Carver, E. Asel, B. A. Springer, P. Lane, F. R. Salemme, High-density miniaturized thermal shift assays as a general strategy for drug discovery, J. Biomol. Screen 6 (2001) 429-440 • 2. J. F. Brandts, L.-N. Lin, Study of strong to ultratight protein interactions using differential scanning calorimetry, Biochemistry 29 (1990) 6927-6940 • 3. Mayhood, T. W., Windsor, W. T., Ligand binding affinity determined by temperature-dependent circular dichroism: Cyclin-dependent kinase 2 inhibitors, Analytical Biochemistry 345 (2005) 187-197 Coupled ERK2 (cERK) Assay:
# 14 μl of kinase buffer (10 mM Tris.HCl pH 7.2, 10 mM MgCl2, 0.01% Tween-20, 1 mM DTT) containing 0.4 ng unphosphorylated Mouse ERK2 protein was added to each well of a black 384-well assay plate. […] DMSO concentration during initial incubation is 6.7%. ERK2 activity was determined to be insensitive to DMSO concentrations up to 20%. ERK2 was then activated and it's kinase activity measured by the addition of 10 μl kinase buffer with the following components (final concentration per reaction): 2 ng active (phosphorylated) human MEK1 protein and 4 μM (total) ERK2 IMAP substrate peptides (3.9 μM unlabeled IPTTPITTTYFFFK-CONH2 and 100 nM IPTTPITTTYFFFK(5-carboxyfluorescein)-CONH2) and 30 μM ATP. DMSO concentration during ERK activation was 4%. After one hour, reactions were terminated by addition of 60 μl IMAP detections beads in binding buffer (Molecular Devices). Binding was allowed to equilibrate for 30 minutes before reading the plate on an LJL Analyst Fluorescence Polarization plate reader. […] Active compounds were reconfirmed in an independent assay.
# Sequence of unphosphorylated Mouse ERK2 protein (inactive ERK2) (P63085 whole entry): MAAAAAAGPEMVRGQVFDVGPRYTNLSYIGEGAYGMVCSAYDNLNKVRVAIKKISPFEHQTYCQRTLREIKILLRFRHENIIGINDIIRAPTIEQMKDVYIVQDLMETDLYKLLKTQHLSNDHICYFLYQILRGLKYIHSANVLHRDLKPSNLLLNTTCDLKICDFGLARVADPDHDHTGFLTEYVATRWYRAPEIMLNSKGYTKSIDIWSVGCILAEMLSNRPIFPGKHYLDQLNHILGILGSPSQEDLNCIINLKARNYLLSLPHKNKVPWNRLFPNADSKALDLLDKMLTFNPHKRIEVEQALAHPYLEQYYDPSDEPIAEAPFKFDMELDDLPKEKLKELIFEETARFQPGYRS
# Sequence of ERK protein (P28482 2-360): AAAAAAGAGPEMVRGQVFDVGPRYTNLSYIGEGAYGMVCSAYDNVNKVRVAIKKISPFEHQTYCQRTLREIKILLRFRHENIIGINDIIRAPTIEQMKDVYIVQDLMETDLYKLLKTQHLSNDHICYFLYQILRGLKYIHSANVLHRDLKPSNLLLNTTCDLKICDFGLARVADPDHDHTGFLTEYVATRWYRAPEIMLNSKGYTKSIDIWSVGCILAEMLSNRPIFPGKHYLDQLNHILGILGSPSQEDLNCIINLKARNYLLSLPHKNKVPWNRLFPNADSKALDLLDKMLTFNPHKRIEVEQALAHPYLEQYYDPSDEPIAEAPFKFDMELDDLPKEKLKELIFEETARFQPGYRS
SMILES,Kd (ERK protein) [nM],IC50 [1] [nM]
"O=C(Nc1ccc2[nH]nc(-c3ccncc3)c2c1)C1CN(Cc2ccsc2)CCO1 (stereo not shown) [Compound 3, N-[3-(4-PYRIDINYL)-1H-INDAZOL-5-YL]-4-(3-THIENYLMETHYL)-2-MORPHOLINECARBOXAMIDE]",77,87.6
"O=C(Nc1ccc2[nH]nc(-c3ccncc3)c2c1)C1CN(Cc2ccccc2Br)CCS1 (stereo not shown) [Compound 6, 4-[(2-BROMOPHENYL)METHYL]-N-[3-(4-PYRIDINYL)-1H-INDAZOL-5-YL]-2-THIOMORPHOLINECARBOXAMIDE]",38,114
"O=C(Nc1ccc2[nH]nc(-c3ccncc3)c2c1)C1CN(Cc2ccccc2Br)CCO1 (stereo not shown) [Compound 7, 4-[(2-BROMOPHENYL)METHYL]-N-[3-(4-PYRIDINYL)-1H-INDAZOL-5-YL]-2-MORPHOLINECARBOXAMIDE]",17,96.9
"O=C(Nc1ccc2[nH]nc(-c3ccncc3)c2c1)C1CN(Cc2cccnc2)CCS1 (stereo not shown) [Compound 8, N-[3-(4-PYRIDINYL)-1H-INDAZOL-5-YL]-4-(3-PYRIDINYLMETHYL)-2-THIOMORPHOLINECARBOXAMIDE]",4610,1070
"O=C(Nc1ccc2[nH]nc(-c3ccncc3)c2c1)C1CN(Cc2ccccn2)CCS1 (stereo not shown) [Compound 12, N-[3-(4-PYRIDINYL)-1H-INDAZOL-5-YL]-4-(2-PYRIDINYLMETHYL)-2-THIOMORPHOLINECARBOXAMIDE]",674,1310
"O=C(Nc1ccc2[nH]nc(-c3ccncc3)c2c1)C1CN(Cc2cscn2)CCS1 (stereo not shown) [Compound 13, N-[3-(4-PYRIDINYL)-1H-INDAZOL-5-YL]-4-(4-THIAZOLYLMETHYL)-2-THIOMORPHOLINECARBOXAMIDE]",201,929
"O=C(Nc1ccc2[nH]nc(-c3ccncc3)c2c1)C1CN(Cc2ccsc2)CCS1 (stereo not shown) [Compound 14, N-[3-(4-PYRIDINYL)-1H-INDAZOL-5-YL]-4-(3-THIENYLMETHYL)-2-THIOMORPHOLINECARBOXAMIDE]",34,183
"O=C(Nc1ccc2[nH]nc(-c3ccncc3)c2c1)C1CN(Cc2ccccc2Cl)CCO1 (stereo not shown) [Compound 15, 4-[(2-CHLOROPHENYL)METHYL]-N-[3-(4-PYRIDINYL)-1H-INDAZOL-5-YL]-2-MORPHOLINECARBOXAMIDE]",17,77.8
"O=C(Nc1ccc2[nH]nc(-c3ccncc3)c2c1)C1CN(Cc2ccccc2)CCO1 (stereo not shown) [Compound 20, 4-(PHENYLMETHYL)-N-[3-(4-PYRIDINYL)-1H-INDAZOL-5-YL]-2-MORPHOLINECARBOXAMIDE]",10,51.1
"O=C(Nc1ccc2[nH]nc(-c3ccncc3)c2c1)C1CCCN(Cc2ccccc2Br)C1 (stereo not shown) [Compound 21, 1-[(2-BROMOPHENYL)METHYL]-N-[3-(4-PYRIDINYL)-1H-INDAZOL-5-YL]-3-PIPERIDINECARBOXAMIDE]",4,130
"O=C(Nc1ccc2[nH]nc(-c3ccncc3)c2c1)C1CCCN(Cc2ccccc2F)C1 (stereo not shown) [Compound 22, 1-[(2-FLUOROPHENYL)METHYL]-N-[3-(4-PYRIDINYL)-1H-INDAZOL-5-YL]-3-PIPERIDINECARBOXAMIDE]",9,27.3
"O=C(Nc1ccc2[nH]nc(-c3ccncc3)c2c1)C1CCCN(Cc2ccccc2Cl)C1 (stereo not shown) [Compound 23, 1-[(2-CHLOROPHENYL)METHYL]-N-[3-(4-PYRIDINYL)-1H-INDAZOL-5-YL]-3-PIPERIDINECARBOXAMIDE]",3,158
"O=C(Nc1ccc2[nH]nc(-c3ccncc3)c2c1)C1CCCN(Cc2ccccc2)C1 (stereo not shown) [Compound 24, 1-(PHENYLMETHYL)-N-[3-(4-PYRIDINYL)-1H-INDAZOL-5-YL]-3-PIPERIDINECARBOXAMIDE]",20,239
"O=C(Nc1ccc2[nH]nc(-c3ccncc3)c2c1)C1CCCNC1 (stereo not shown) [Compound 25, N-[3-(4-PYRIDINYL)-1H-INDAZOL-5-YL]-3-PIPERIDINECARBOXAMIDE]",4500,631
"CN1CCCC(C(=O)Nc2ccc3[nH]nc(-c4ccncc4)c3c2)C1 (stereo not shown) [Compound 26, 1-METHYL-N-[3-(4-PYRIDINYL)-1H-INDAZOL-5-YL]-3-PIPERIDINECARBOXAMIDE]",1100,4870
"O=C(Nc1ccc2[nH]nc(-c3ccncc3)c2c1)C1CN(Cc2ccc(Cl)cc2)CCO1 (stereo not shown) [Compound 27, 4-[(4-CHLOROPHENYL)METHYL]-N-[3-(4-PYRIDINYL)-1H-INDAZOL-5-YL]-2-MORPHOLINECARBOXAMIDE]",3530,538
"COc1cccc(CN2CCOC(C(=O)Nc3ccc4[nH]nc(-c5ccncc5)c4c3)C2)c1 (stereo not shown) [Compound 28, 4-[(3-METHOXYPHENYL)METHYL]-N-[3-(4-PYRIDINYL)-1H-INDAZOL-5-YL]-2-MORPHOLINECARBOXAMIDE]",3620,290
"N#Cc1ccc(CN2CCOC(C(=O)Nc3ccc4[nH]nc(-c5ccncc5)c4c3)C2)cc1 (stereo not shown) [Compound 30, 4-[(4-CYANOPHENYL)METHYL]-N-[3-(4-PYRIDINYL)-1H-INDAZOL-5-YL]-2-MORPHOLINECARBOXAMIDE]",3290,1280
"N#Cc1cccc(CN2CCOC(C(=O)Nc3ccc4[nH]nc(-c5ccncc5)c4c3)C2)c1 (stereo not shown) [Compound 31, 4-[(3-CYANOPHENYL)METHYL]-N-[3-(4-PYRIDINYL)-1H-INDAZOL-5-YL]-2-MORPHOLINECARBOXAMIDE]",2720,1180
"N#Cc1ccccc1CN1CCOC(C(=O)Nc2ccc3[nH]nc(-c4ccncc4)c3c2)C1 (stereo not shown) [Compound 32, 4-[(2-CYANOPHENYL)METHYL]-N-[3-(4-PYRIDINYL)-1H-INDAZOL-5-YL]-2-MORPHOLINECARBOXAMIDE]",775,383
"COc1ccc(CN2CCOC(C(=O)Nc3ccc4[nH]nc(-c5ccncc5)c4c3)C2)cc1 (stereo not shown) [Compound 33, 4-[(4-METHOXYPHENYL)METHYL]-N-[3-(4-PYRIDINYL)-1H-INDAZOL-5-YL]-2-MORPHOLINECARBOXAMIDE]",1140,226
"COc1ccc(CN2CCOC(C(=O)Nc3ccc4[nH]nc(-c5ccncc5)c4c3)C2)c(F)c1 (stereo not shown) [Compound 38, 4-[(2-FLUORO-4-METHOXYPHENYL)METHYL]-N-[3-(4-PYRIDINYL)-1H-INDAZOL-5-YL]-2-MORPHOLINECARBOXAMIDE]",588,556
"O=C(Nc1ccc2[nH]nc(-c3ccncc3)c2c1)C1CN(Cc2c(F)cccc2C(F)(F)F)CCO1 (stereo not shown) [Compound 39, 4-[[2-FLUORO-6-(TRIFLUOROMETHYL)PHENYL]METHYL]-N-[3-(4-PYRIDINYL)-1H-INDAZOL-5-YL]-2-MORPHOLINECARBOXAMIDE]",715,4760
"COc1cc(F)c(CN2CCOC(C(=O)Nc3ccc4[nH]nc(-c5ccncc5)c4c3)C2)cc1OC (stereo not shown) [Compound 40, 4-[(2-FLUORO-4,5-DIMETHOXYPHENYL)METHYL]-N-[3-(4-PYRIDINYL)-1H-INDAZOL-5-YL]-2-MORPHOLINECARBOXAMIDE]",1190,1110
"O=C(Nc1ccc2[nH]nc(-c3ccncc3)c2c1)C1CN(Cc2ccccc2)CCC1O (stereo not shown) [Compound 71, 4-HYDROXY-1-(PHENYLMETHYL)-N-[3-(4-PYRIDINYL)-1H-INDAZOL-5-YL]-3-PIPERIDINECARBOXAMIDE]",84.1,
